pIC50: −log10 of the molar value.
What was measured:
[1] = tested on: mescaline-induced heat twitches; assay: Antagonism of mescaline-induced heat twitches in mice; assay type: in vivo; conditions: Mus musculus, sc, subcutaneously administered, read-out: AD50 (the source's name)
Method: In this test, the AD50 of subcutaneously administered carpipramine is 8 mg/kg.

[2] = Acute oral toxicity in mice; conditions: mouse, in vivo, po; administered orally in mice
[3] = tested on: mice; assay: Acute oral toxicity in mice; conditions: mouse, in vivo
[4] = molecular target: T1, central serotonin receptor sites (type S2) (Rattus norvegicus, UniProt P14842); assay: Affinity for central serotonin receptor sites (type S2), tritiated ketanserin binding
T1 construct: central serotonin receptor sites (type S2); from tissue; the cited Leysen 1982 method used rat prefrontal/frontal cortex, own knowledge
Method: The affinity of carpipramine for central serotonin receptor sites (type S2) was determined by a technique based on that of J. E. LEYSEN et al., Mol. Pharmacol. 21, 301 (1982), which consists in measuring the affinity of the product for binding sites for tritiated ketanserin. In this test, the IC50 of carpipramine is 3 nM.

T1 sequence (P14842 whole entry): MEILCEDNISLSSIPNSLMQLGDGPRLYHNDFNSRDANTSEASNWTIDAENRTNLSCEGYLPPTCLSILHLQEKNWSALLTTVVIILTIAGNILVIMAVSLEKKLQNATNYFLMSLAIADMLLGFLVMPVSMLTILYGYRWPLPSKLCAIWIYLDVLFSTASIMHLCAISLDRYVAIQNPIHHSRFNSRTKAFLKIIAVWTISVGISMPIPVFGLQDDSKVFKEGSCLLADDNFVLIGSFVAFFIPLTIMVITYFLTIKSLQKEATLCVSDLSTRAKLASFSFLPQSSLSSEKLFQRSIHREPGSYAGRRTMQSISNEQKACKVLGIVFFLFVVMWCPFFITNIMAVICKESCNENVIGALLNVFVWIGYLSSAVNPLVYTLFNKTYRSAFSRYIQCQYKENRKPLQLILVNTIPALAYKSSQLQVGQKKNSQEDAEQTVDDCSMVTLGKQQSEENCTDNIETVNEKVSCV

With `NC(=O)C1(N2CCCCC2)CCN(CCCN2c3ccccc3CCc3ccccc32)CC1` [carpipramine, 5-[3-(4-carbamoyl-4-piperidinopiperidino)-1-propyl]-10,11-dihydrodibenz[b,f]azepine] the ED50 [1] was 8 mg/kg, the LD50 [2] was 250 mg/kg and the toxicity [3] was “low toxicity”. The pIC50 [4] was 8.52.
